From PMC9982066, “Inhibition of Ehrlichia chaffeensis infection by cell-permeable macrocyclic peptides that bind type IV secretion effector Etf-1” (PNAS Nexus, 2023)
Starred links: 1 amine or outer side, 2 acyl side, 3 side chain; linkers in the order of their positions; H or OH if unused. Positions of bridges follow the written chain, without caps; N, C: chain ends. Non-standard residues stand in square brackets, D forms with d. Residues, ends and D or L forms follow the SMILES beside them. Trimesoyl = O=C(c1cc(C(=O)[*:2])cc(C(=O)[*:3])c1)[*:1]; Phe(4-Cl) = N[C@@H](Cc1ccc(Cl)cc1)C(=O)O; Phe(4-F) = N[C@@H](Cc1ccc(F)cc1)C(=O)O; d2Nal = N[C@H](Cc1ccc2ccccc2c1)C(=O)O; Orn = NCCC[C@H](N)C(=O)O; Dap = NC[C@H](N)C(=O)O

What was measured:
[1] = target: T1, Etf-1 (Ehrlichia chaffeensis, UniProt Q2GG12); assay: FP assay of Etf-1 binding with FAM-labeled peptides
Protocol: The peptides were labeled at their C-terminus with carboxyfluorescein (FAM) through a β-Ala-β-Ala-Lys linker and evaluated for binding to Etf-1 by using a fluorescence polarization (FP) assay. […] This outcome is not unexpected, as screening OBOC libraries is often complicated by false positives, due to the presence of high ligand densities on library beads ([28]).
(§1) Fig. 2. Determination of binding affinity of Etf-1-binding peptides by FP assay. […] FAM-labeled peptide (50 nM) was incubated with serially diluted Etf-1 (starting from 25–30 μM in PBS, pH 7.4, supplemented with 5 mM DTT and 0.01% Triton X-100) for 1 h at RT. FP values were measured on a Tecan Infinite M1000 Pro plate reader. Titration curves (n ≥ 3) were fitted using GraphPad Prism and analyzed with TraceDrawer to calculate dissociation constants (KD). […] Data were analyzed using GraphPad Prism and fitted to a four-parameter variable slope equation to determine IC50 values.
Etf-1 and macrocyclic peptides were serially diluted in PBS supplemented with 5 mM DTT and 0.01% Triton X-100 (v/v). FAM-labeled peptides (50 nM) were prepared from a 10-μM DMSO stock and incubated with serially diluted Etf-1 for 1 h at room temperature (RT). Twenty microliters of the solutions were transferred to a black 384-well plate (Greiner Bio-One) and FP values were measured on a Tecan Infinite M1000 Pro plate reader with excitation and emission wavelengths at 470 and 535 nm, respectively. Titration curves (n ≥ 3) were fitted using GraphPad Prism v8.0 (GraphPad, La Jolla, CA, USA), and analyzed with TraceDrawer software v1.8 (Ridgeview Instruments AB, Uppsala, Sweden) to calculate the dissociation constant (KD, in nM).

[2] = system: E. chaffeensis; assay: E. chaffeensis infection of THP-1 cells, qPCR of 16S rRNA gene normalized to human actin; assay type: cell-based, Ehrlichia chaffeensis; conditions: 10 μM, 2 days, vs DMSO control
Protocol: Therefore, we investigated whether these Etf-1-binding peptides can prevent the proliferation of E. chaffeensis inside host cells. THP-1 cells were infected with E. chaffeensis, then treated with the peptides at 30 min post infection (pi) for 2 days. Intracellular infection and proliferation of E. chaffeensis inside host THP-1 cells were assessed using quantitative PCR (qPCR) analysis based on E. chaffeensis 16S rRNA gene normalized by human actin (ACT) gene.
Fig. 5. Effects of Etf-1-binding peptides on E. chaffeensis infection of THP-1 cells. Ehrlichia chaffeensis-infected THP-1 cells at […] were incubated with 10 μM of Etf-1-binding macrocyclic peptide or DMSO control for 2 days.
No antibiotic was used throughout the study.
DNA was extracted from each sample using Qiagen blood mini kit according to the manufacturer's instructions (Qiagen, Valencia, CA, USA), and qPCR analysis was performed in an MX3000P qPCR instrument (Stratagene, San Diego, CA, USA) using SYBR Green Real-Time PCR Master Mix (Thermo Fisher Scientific) according to the manufacturer's instructions. Five-fold serial dilutions of the control group were used to generate a standard curve to calculate the relative copy numbers of E. chaffeensis 16S rRNA normalized against human actin genes using the MX3000P software from Stratagene as described previously ([18], [44]).

[3] = system: E. chaffeensis; assay: morphological examination of E. chaffeensis infection of THP-1 cells by Diff-Quik staining; conditions: THP-1 cells, Fig. S4 (with Figs. 5, S3)
Protocol: Ehrlichia chaffeensis Arkansas strain ([43]) was cultured in THP-1 cells (ATCC, Manassas, VA, USA) in RPMI 1640 medium (Corning, Manassas, VA, USA) supplemented with 8% FBS (Atlanta Biologicals, Flowery Branch, GA, USA) and 4 mM L-glutamine (at 37°C under 5% CO2 in a humidified atmosphere. THP-1 cells were seeded at 1 × 10^5 cells/well (in 1.5-mL RPMI 1640 culture medium with 8% FBS, 4 mM L-Gln) in a 12-well plate, then infected with host cell-free E. chaffeensis at an MOI (multiplicity of infection, or numbers of bacteria per cell) of ∼30. Cells were cultured in a humidified incubator with 5% CO2 and 95% air. No antibiotic was used throughout the study. At 0.5 h post infection (pi), cells were incubated with 1–10 μM of peptides or with an equal volume of DMSO (solvent control, 2 μL per mL medium). At 2 days pi, cells were washed with 1 mL of PBS, and two drops of cells were cytospun onto glass slides by a Shandon Cytospin 4 cytocentrifuge (Thermo Fisher Scientific), then fixed and stained with HEMA 3 staining solutions (Thermo Fisher Scientific). Ehrlichia infection was observed and images were captured by a SPOT RT digital camera (Diagnostic Instruments, Sterling Heights, MI, USA) coupled to a Nikon Eclipse E400 microscope (Nikon, Melville, NY, USA).

[4] = system: BECN1 binding to Etf-1; assay: streptavidin magnetic beads pull-down of BECN1 with biotin-Etf-1, Western blot; assay type: biochemical; conditions: 10 µM peptide; for BECN1/Etf-1 Ratio: band intensities, DMSO control set as 1, Fig. 8B
Protocol: Fig. 8.
Streptavidin magnetic beads (15 µL, Pierce, Rockford, IL, USA) were washed with 1 mL of Bind/Wash buffer (25 mM Tris, pH 7.4; 250 mM NaCl, 0.1% Tween 20), and incubated with 0.15 µg ([…] final concentration) of biotinylated full-length Etf-1 protein in bind/wash buffer at 4°C overnight with end-to-end rotation. Beads were washed three times with Bind/Wash buffer, then incubated with Etf-1-binding macrocyclic peptides (10 µM) or DMSO control in Bind/Wash buffer at room temperature for 2 h. […] Beads were washed three times, and proteins were eluted from the beads with 50 µL of 2× SDS-sample buffer. […] Reacting bands were visualized with enhanced chemiluminescence by incubating the membrane with LumiGLO chemiluminescent reagent (Thermo Fisher Scientific). Images were captured by Amersham Imager 680 (GE Healthcare) and densitometry analysis was performed using ImagQuaNT (GE Healthcare). In each specimen, band intensities were normalized against those of actin as the loading control, and the ratios of the treatment group to the control group were calculated with the value in the control groups arbitrarily set as 1.0.

[5] = system: THP-1 cells; assay: CellTiter-Glo luminescent cell viability assay; conditions: 2-day treatment
Source text: THP-1 (human promyelocytic leukemia) cells are widely used as E. chaffeensis infection studies of human monocytes in vitro, since initial characterization of infection ([31]).
Fig. 4. Cytotoxicity and proteolytic stability of Etf-1-binding peptides. (A) Effect of Etf-1-binding peptides on the viability of THP-1 cells as determined by CellTiter-Glo luminescent assay. Relative luminescence was plotted as function of the peptide concentration, with the cell viability of DMSO control group set as 100%. (B) Plot of the amount of intact peptide remaining as a function of the incubation time in 25% human serum. All values are normalized to that of peptide at time 0 (100%).
Cytotoxicity of Etf-1-binding peptides was examined by CellTiter-Glo luminescent cell viability assay (Promega, Madison, WI, USA). THP-1 cells were seeded in a transparent 96-well plate at a density of 5 × 10^3 cells/well (100 μL in each well) in RPMI-1640 containing 10% FBS and 1% antibiotics and cultured overnight. Etf-1-binding peptides were serially diluted in DPBS from a DMSO stock and added to the cells with the final concentration of 0–25 μM and a constant final concentration of 0.5% DMSO (v/v). After incubation at 37°C with 5% CO2 for 46 h, the plate was removed and pre-equilibrated to RT before the addition of 100 μL of the CellTiter-Glo 2.0 reagent to each well. The plate was incubated for 15 min on a rotary shaker in the dark, and the luminescence was detected (1-s integration time) on a Tecan Infinite M1000 Pro microplate reader. Relative luminescence was plotted as function of the peptide concentration, with the cell viability of DMSO control group set as 100%.

[6] = target: T1, Etf-1; assay: biochemical; assay type: binding; conditions: unlabeled competitor peptides vs FAM-B7-133-8
Protocol: as §1
Serial dilutions of competitor peptide (0-20 μM) were prepared from DMSO stock solutions into PBS containing 0.01% Triton-X100 and 2 mM TCEP and added to aliquots of the equilibrated Etf-1/probe solution. After incubation for 1 h in the dark and with gentle mixing, 20 μL of each sample was transferred into 384-well black-on-black microplates and FP was measured using a TECAN Infinite M1000 plate reader. Data were analyzed using GraphPad PRISM ver. 8.0 and fit to a four-parameter variable slope equation to determine IC50 values. IC50 values reported are the mean ± SD of n = 2–4 independent experiments.

T1 sequence (Q2GG12 entry or part of it): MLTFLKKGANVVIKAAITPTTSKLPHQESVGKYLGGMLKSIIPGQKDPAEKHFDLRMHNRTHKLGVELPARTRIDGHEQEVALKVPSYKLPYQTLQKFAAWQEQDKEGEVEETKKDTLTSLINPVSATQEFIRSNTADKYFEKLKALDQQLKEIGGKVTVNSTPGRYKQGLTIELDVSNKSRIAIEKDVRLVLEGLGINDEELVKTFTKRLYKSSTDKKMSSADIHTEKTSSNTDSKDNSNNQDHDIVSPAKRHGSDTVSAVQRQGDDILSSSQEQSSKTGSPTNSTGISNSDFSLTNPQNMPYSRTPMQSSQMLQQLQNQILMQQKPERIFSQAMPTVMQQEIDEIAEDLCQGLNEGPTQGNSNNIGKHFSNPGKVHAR

Compound	Kd [1] [nM]	inhibition of E. chaffeensis infection [2]	E. chaffeensis infection (numbers and sizes of morulae) [3]	disruption of BECN1 binding to Etf-1 ([4]; compared to DMSO control)	BECN1/Etf-1 Ratio [4]	cell viability ([5]; 20 μM)	cytotoxicity ([5]; up to 10 μM)	competition for Etf-1 binding [6]
CC(C)[C@H]1NC(=O)[C@@H](CCC(=O)O)NC(=O)c2cc3cc(c2)C(=O)NC[C@H](NC(=O)CNC(=O)[C@H](Cc2c[nH]c4ccccc24)NC(=O)[C@H](Cc2ccc(O)cc2)NC1=O)C(=O)N[C@@H](Cc1ccccc1)C(=O)N[C@H](Cc1ccc2ccccc2c1)C(=O)N[C@H](CCCNC(=N)N)C(=O)N[C@@H](CCCNC(=N)N)C(=O)N[C@H](CCCNC(=N)N)C(=O)N[C@@H](CCCNC(=N)N)C(=O)N[C@H](C(N)=O)CNC3=O [Peptide C8, TMA-glu-val-Tyr-Trp-Gly-Dap-Phe-nal-arg-Arg-arg-Arg-Dap] ([dE][dV]YWG[Dap]F[d2Nal][dR]R[dR]R[Dap]-NH2; linker N-6-13 via Trimesoyl)	5000 ± 1200	significantly inhibited	significantly inhibited	disrupted BECN1 binding to Etf-1	0.14	–	–	–
CC(C)C[C@H]1NC(=O)[C@H](CO)NC(=O)[C@H]2CCCN2C(=O)[C@H](CCC(N)=O)NC(=O)[C@H](Cc2c[nH]cn2)NC(=O)[C@H](Cc2ccc(O)cc2)NC(=O)c2cc3cc(c2)C(=O)NC[C@H](NC1=O)C(=O)N[C@@H](Cc1ccc(Cl)cc1)C(=O)N[C@H](Cc1ccc2ccccc2c1)C(=O)N[C@H](CCCNC(=N)N)C(=O)N[C@@H](CCCNC(=N)N)C(=O)N[C@H](CCCNC(=N)N)C(=O)N[C@@H](CCCNC(=N)N)C(=O)N[C@H](C(N)=O)CNC3=O [Peptide B7-16, TMA-Tyr-His-Gln-pro-Ser-leu-Dap-4-ClPhe-nal-arg-Arg-arg-Arg-Dap] (YHQ[dP]S[dL][Dap][Phe(4-Cl)][d2Nal][dR]R[dR]R[Dap]-NH2; linker N-7-14 via Trimesoyl)	2000 ± 200	significantly inhibited	significantly inhibited	–	–	slightly reduced the cell viability	no cytotoxicity	–
CC(C)C[C@H]1NC(=O)[C@H](Cc2ccc(F)cc2)NC(=O)[C@H](CCCN)NC(=O)[C@H](CC(=O)O)NC(=O)[C@H](CC(=O)O)NC(=O)[C@@H](C(C)C)NC(=O)[C@H](Cc2ccc(O)cc2)NC(=O)c2cc3cc(c2)C(=O)NC[C@H](NC1=O)C(=O)N[C@@H](Cc1ccc(Cl)cc1)C(=O)N[C@H](Cc1ccc2ccccc2c1)C(=O)N[C@H](CCCNC(=N)N)C(=O)N[C@@H](CCCNC(=N)N)C(=O)N[C@H](CCCNC(=N)N)C(=O)N[C@@H](CCCNC(=N)N)C(=O)N[C@H](C(N)=O)CNC3=O [Peptide B7-95-2, TMA-Tyr-val-Asp-Asp-Orn-Fpa-leu-Dap-4-ClPhe-nal-arg-Arg-arg-Arg-Dap] (Y[dV]DD[Orn][Phe(4-F)][dL][Dap][Phe(4-Cl)][d2Nal][dR]R[dR]R[Dap]-NH2; linker N-8-15 via Trimesoyl)	740 ± 60	significantly inhibited	significantly inhibited	–	–	–	–	Competition for Etf-1 binding was observed
CC(C)C[C@H]1NC(=O)[C@H](Cc2ccc(F)cc2)NC(=O)[C@@H](Cc2ccc(O)cc2)NC(=O)[C@@H](CC(C)C)NC(=O)[C@@H](C(C)C)NC(=O)[C@H](Cc2ccc(O)cc2)NC(=O)c2cc3cc(c2)C(=O)NC[C@H](NC1=O)C(=O)N[C@@H](Cc1ccc(Cl)cc1)C(=O)N[C@H](Cc1ccc2ccccc2c1)C(=O)N[C@H](CCCNC(=N)N)C(=O)N[C@@H](CCCNC(=N)N)C(=O)N[C@H](CCCNC(=N)N)C(=O)N[C@@H](CCCNC(=N)N)C(=O)N[C@H](C(N)=O)CNC3=O [Peptide B7-133-9, TMA-Tyr-val-leu-tyr-Fpa-leu-Dap-4-ClPhe-nal-arg-Arg-arg-Arg-Dap] (Y[dV][dL][dY][Phe(4-F)][dL][Dap][Phe(4-Cl)][d2Nal][dR]R[dR]R[Dap]-NH2; linker N-7-14 via Trimesoyl)	–	–	only slightly reduced	–	1.19	–	–	Competition for Etf-1 binding was observed
TMA-Tyr-Phg-Orn-ala-Ieu-Orn-leu-Dap-4-ClPhe-nal-arg-Arg-arg-Arg-Dap [Peptide B7-131-3]	–	–	–	–	–	–	–	Competition for Etf-1 binding was observed
